Columns and labels:
[1] = system: lysosomes; assay: Colocalization with Lysotracker Red by fluorescence microscopy; assay type: cell-based; details: live THP-1 cells
Protocol: (§1) A. LTI studies: Aliquots of THP-1 cells (Cell densities were 1×10^6 cells per mL) were exposed to either 100 nM InstantLyso LLT-1 in RPMI 1640 medium with 10% FCS at 37° C., 5% CO2, both InstantLyso LLT-1 and 100 nM Lysotracker Red (Molecular Probes, Eugene Oreg.), or both InstantLyso LLT-1 and at a concentration of 75 nM. Mitotracker Red (Molecular Probes). In each case, medium is first pipetted off cells, then warmed medium containing dyes is added. The cell suspension is incubated for 30 minutes at 37° C. and examined by microscopy.
Colocalization of InstantLyso LLT-1 with Lysotracker red were performed under the following conditions: Live THP-1 Leukemic monocytes were grown in RPMI 1640 medium at 37C. and 5% CO2 for 5 days. 2 mL of cells were allowed to adhere to a Biocoat (polylysine coated) glass bottomed cell culture plate for 30 minutes at 37C. The old medium was removed and 2 mLs of 37 C fresh media containing 1 00 nM InstantLyso LLT-1 (from 10 μM DMSO stock) and 100 nM Lysotracker Red (from 1 mM DMSO stock) was added. Cells were incubated at 37C for 30 minutes. And visualized with an inverted epifluorescence microscope at 600× using a blue/purple (450/50 ex and 510/50 em with D480 mirror) cube for InstantLyso LLT-1 and a green (560/50 ex and 646/40 em with D595 mirror). Exposure was automatic. Temperature was ambient. […]

[2] = system: mitochondria; assay: Colocalization with Mitotracker Red by fluorescence microscopy; assay type: cell-based
Protocol: as §1
(§2) B. InstantLipo Sep-1 studies: Aliquots of either THP-1 cells or adherent human fibroblasts were exposed to either 200 nM InstantLipo Sep-1in RPMI 1640 medium with 10% FCS at 37 C, 5% CO2, both InstantLipo Sep-1and Vybrant lipid raft kit (Molecular Probes, used according to the manufacturer's instructions), both InstantLipo Sep-1and Mitotracker Red (Molecular Probes, used according to the manufacturer's instructions), or both InstantLipo Sep-1and Lysotracker Red. Cells were incubated at 37° C. for at least 20 minutes. […] Some of the punctate structures moved rapidly when observed by confocal microscopy in living cells. Conditions for colocalization are as follows: Live THP-1 Leukemic monocytes were grown in RPMI 1640 medium at 37 C and 5% CO2 for 5 days. […]

[3] = system: cholesterol-rich domains; assay: Staining of fibroblasts treated with cholesterol transport inhibitor U18666A; assay type: cell-based, human; details: foreskin fibroblasts, 3 μg/mL U18666A overnight, 150 nM dye, 30 minutes
Protocol: Similarly, 3 μg/mL from H20 stock of aminoesterol U18666A (Calbiochem)) is often used with fibroblasts to inhibit intracellular cholesterol transport and leads to accumulation of cholesterol in nuclear regions (C. F. Roff, E. Goldin, M. E. Comly, A. Cooney, A. Brown, M. T. Vanier, S. P. Miller, R. O. Brady and P. G. Pentchev, Dev Neurosci 13 (1991) 315-9). Foreskin fibroblasts were grown on coverslips for 1 day in EMEM. Medium was removed and replaced with 2 mL fresh EMEM to ensure consistent treatment as cells that were treated with U18666A. Cells were incubated at 37° C. and 5% CO2 overnight. Medium was removed and replaced with 2 mL EMEM containing 200 nM InstantLipo Sep-1. Cells were then incubated at 37° C. and 5% CO2 for 30 minutes to allow dye to load. Cells were imaged using an epifluorescence microscope at 1000× magnification while excited with a purple cube.
Foreskin fibroblasts were grown on coverslips for 3 days in EMEM. Medium was removed and replaced with 2 mL EMEM containing 3μg/mL U18666A. Cells were incubated at 37° C. and 5% CO2 overnight. Medium was removed and replaced with 2 mL EMEM containing 150 nM InstantGolgi McN-1. Cells were then incubated at 37° C. and 5% CO2 for 30 minutes to allow dye to load. […] This is consistent with the staining of more numerous and pathological cholesterol-rich domains and vesicles. […]

[4] = system: THP-1 cells; details: FIG. 24, concentration not given
[5] = system: THP-1 cells; assay: Staining pattern in live THP-1 cells; assay type: cell-based; details: THP-1 monocytic cells, 100 nM dye, 30 minutes
Protocol: as §1, §2

CCCCCCN1C(=O)c2cccc3c(NCCNS(=O)(=O)c4ccc(C)cc4)ccc(c23)C1=O [InstantGolgi McN-1, N-hexyl-4-[2-(4-toluensulfonyl)aminoethyl]amino-1,8-naphthalimide]
colocalization with lysosomes (Lysotracker Red) ([1]; 150 nM dye + 75 nM Lysotracker Red): limited colocalization with lysosomes and mitochondria | colocalization with mitochondria (MitoTracker Red) ([2]; live THP-1 cells, 150 nM dye + 50 nM MitoTracker Red): limited colocalization with lysosomes and mitochondria | staining change after U18666A [3]: more punctate bright spots in cells after inhibition | cytotoxicity / viability (Trypan blue) [4]: no significant cytotoxicity

CCCCCCN1C(=O)c2cccc3c(NCCN)ccc(c23)C1=O [InstantLyso LLT-1, 6-(2-aminoethyl)amino-2-hexyl-1H-benz[de]isoquinoline-1,3-(2H)-dione]
co-localization with Lysotracker Red ([1]; 100 nM dye + 100 nM Lysotracker Red, 30 minutes): positive co-localization | co-localization with Mitotracker Red ([2]; THP-1 cells, 100 nM dye + 75 nM Mitotracker Red, 30 minutes): failed to exhibit such co-localization | staining pattern [5]: staining in punctate structures
